Paper PMC11515993, “ZSTK474 targeting PIK3R3 inhibits the Wilms’ tumor through G0 / G1 phase arrest” (PLOS ONE, 2024)

Assays:
WT-CLS1 cells [1] = experiment: CCK-8 cell proliferation assay (IC50); format: cell-based; conditions: 48-hour treatment
Description: (§1) The assessment of cell proliferation was conducted utilizing the CCK-8 assay sourced from MCE (HY-K0301, USA). Following detachment utilizing 0.25% trypsin, WiT49 (2.5×10^3) and WT-CLS1 (3×10^3) cells were cultured in 96-well plates. Following adhesion, cells were subjected to varying doses of ZSTK474 (0–32 μM) for a duration of 48 hours. Following a 2-hour incubation with culture medium (90 μL) and CCK-8 reagent (10 μL) at 37°C, the measurement of the absorbance at 450 nm was conducted to measure the IC50 value of ZSTK474. Following this, the cells were treated with ZSTK474 at concentrations equivalent to 1/2, 1, and 2 times the IC50 value. Growth curves were subsequently plotted at 0, 24, 48, and 72 hours post-incubation.

WiT49 cells [2] = experiment: CCK-8 cell proliferation assay (IC50); format: cell-based; conditions: 48-hour treatment
Description: as §1

WiT49 and WT-CLS1 cells [3] = experiment: CCK-8 growth curves; format: cell-based; conditions: 1/2, 1 and 2 times IC50; 0, 24, 48, 72 hours
Description: as §1

[4] = In vivo safety in WiT49 tumor-bearing mice (body weight, blood and serum tests, organ HE staining); conditions: two weeks; for ALT / AST / BUN / CK / CRE: tumor-bearing nude mice
Description: (§2) The in vivo experiments were approved by the Institutional Animal Care and Use Committee of Chongqing Medical University (approval number: CHCMU-IACUC20220323001). After being sourced from the Animal Research Center at Chongqing Medical University, BALB/C nude mice (male, 3 weeks old) were housed in stainless steel cages in a ventilated animal room. The room temperature in the housing facility was maintained at 24°C, with a relative humidity of 60% and a 12-h light/dark cycle. Distilled water and sterilized food were available ad libitum. The mice were acclimated for a week. Injection of 2×10^6 WiT49 cells, suspended in 100μL of DMEM, into the left axilla of the mice was used to induce subcutaneous nephroblastoma xenograft tumors. Once the tumor volume reached 90–100 mm^3, the mice were segregated into four groups (n = 6 in each group). Except for one control group that was given PBS, three groups were given daily doses of ZSTK474 (MCE, China) at 25, 50, and 100 mg/kg over a two-week period. Tumor size and body weight of tumor-bearing mice were monitored throughout the study, and no mice died before meeting criteria for euthanasia. The mice were anaesthetised using 3% isoflurane, blood was taken from the eye socket and then executed by decapitation. Standard blood tests and serum analyses were performed to evaluate toxicity, focusing on liver, cardiac, and renal markers for tumor-bearing mice of each group. Tumor weights were recorded, and samples of various organs and tumors were collected for further analysis.
Fresh tumor samples were fixed in paraformaldehyde for 72 hours. The samples were processed through paraffin embedding and subsequently sectioned at a thickness of 4 μm. The subsequent procedures comprised hydration with xylene and alcohol, staining with hematoxylin and eosin, and dehydration through immersion in graded alcohol and xylene. Subsequently, images were acquired using light microscopy from Nikon, Japan.

[5] = system: WiT49 subcutaneous nephroblastoma xenograft tumors; experiment: Subcutaneous nephroblastoma xenograft tumor growth and tumor immunofluorescence; format: in vivo, BALB/C nude mice
Description: as §2, with “analysis. Following fixation in 4% paraformaldehyde for more than 24 hours, tumor tissues underwent dehydration and paraffin embedding and were then sectioned into 4-μm slices. The sections were then subjected to thermal antigen retrieval by treating them with sodium citrate buffer and subsequently exposing them to microwave radiation. Following dewaxing, the sections were blocked using 0.5% bovine serum albumin (BSA) and left to incubate with primary antibodies overnight at 4°C. […]” for “analysis.”

WiT49 and WT-CLS1 cells [6] = experiment: Wound healing (scratch) cell migration assay; format: cell-based; conditions: 0, 24, 48 hours, serum-free medium
Description: WT cells (2×10^5 cells per well) were cultured in 6-well plates in a 5% CO2 environment at 37°C until confluence was achieved. A consistent wound was generated on the cellular surface, and any detached cells were eliminated using PBS. After this, WiT49 and WT-CLS1 cells were subjected to varying concentrations of ZSTK474 in a serum-free DEME medium. After a 48-hour incubation, cell migration was assessed at 0, 24, and 48 hours under a Nikon microscope. The scratch width measurement was performed using ImageJ.

WiT49 and WT-CLS1 cells [7] = experiment: Transwell cell invasiveness assay; format: cell-based; conditions: 24 and 48 hours
Description: The assessment of cell invasiveness was performed through a Transwell assay on plates coated with matrix gel. When seeded on plates, WiT49 and WT-CLS1 cells were positioned in the […] with a 10% FBS medium, while different concentrations of ZSTK474 in a serum-free medium were placed in the upper chamber. Cells were fixed and stained with crystal violet after 24 and 48 hours of treatment. Cell invasiveness was quantified using ImageJ software while observing under a light microscope.

WT-CLS1 cells [8] = experiment: Annexin V apoptosis flow cytometry; format: cell-based; conditions: WT-CLS1, 48 hours, IC50 dose
Description: (§3) The assessment of apoptosis was carried out using the Annexin V Apoptosis Kit (BDPharmingen, 5565547, USA). WiT49 and WT-CLS1 cells were cultured in 6-well plates for 12 hours. Subsequently, they were exposed to different concentrations of ZSTK474 for 48 hours and then analyzed using flow cytometry. FlowJo 10.8.1 software was utilized for data analysis.

WiT49 cells [9] = experiment: Annexin V apoptosis flow cytometry; format: cell-based; conditions: WiT49, 48 hours, IC50 dose
Description: as §3

WiT49 and WT-CLS1 cells [10] = experiment: TUNEL assay; format: cell-based; conditions: 48 hours, low, medium and high dose
Description: In WT cells, apoptosis-induced DNA damage was identified through TUNEL staining in the low, medium, and high-dose intervention groups. After a 12-hour incubation in 24-well plates, cells were treated with varying concentrations of ZSTK474 for 48 hours. The cells were then subjected to TUNEL staining according to the manufacturer’s instructions. The cell nuclei were counterstained with DAPI and then mounted utilizing an anti-fade mounting medium. The Nikon C2 microscope was employed for image acquisition.

WiT49 and WT-CLS1 cells [11] = experiment: Cell cycle assay by flow cytometry; format: cell-based; conditions: different concentrations, 48 hours
Description: The assessment of cell cycle progression after exposure to different concentrations of ZSTK474 was conducted using the BD Cell Cycle Assay Kit from Dojindo, Japan. In accordance with standardized procedures, WT-CLS1 and WiT49 cells were cultured for 48 hours, then fixed in 75% ethanol for an additional 48 hours. Following this, the cells were centrifuged, resuspended twice in PBS, and stained with propidium iodide and RNase at 37°C for 30 minutes. Lastly, cell cycle distribution was assessed through flow cytometry.

WiT49 and WT-CLS1 cells [12] = experiment: Western blot of treated WT cells; format: cell-based
Description: The protein lysis solution containing 1% PMSF was used to lyse both WiT49 and WT-CLS1 cells treated with ZSTK474. After centrifugation at 12000g for 20 minutes, the protein content was quantified using a BCA assay kit (Thermo, China). Subsequently, 10 μg of protein underwent electrophoresis on a 6%-12.5% SDS-PAGE gel (EpiZyme, China) and was then transferred to a PVDF membrane (Millipore, ISEQ00010, USA) via semi-dry electrotransfer. After three TBST washes, the PVDF membranes were exposed to primary antibodies (Akt, MMP2, MMP9, PI3K, p-PI3K, p-Akt, PCNA, VEGF, P21, CyclinD, CDK4, GAPDH from ZENBIO, Chengdu, China; PIK3R3 from Proteintech, Wuhan, China) overnight at a 1:1000 dilution and 4°C. After being washed three times in TBST, the PVDF membrane was incubated with secondary antibodies (1:20000, ZENBIO, China) for one hour at room temperature. The Bio-RAD analyzer and Image Lab software were utilized for imaging and analysis.

WT-CLS1 cells [13] = experiment: RT-PCR of NRG4, CDKN1A, FGF18, PIK3R3, PDGFRB; format: cell-based; conditions: among the five genes
Description: Total RNA was extracted from WiT49 and WT-CLS1 cells utilizing TRIzol reagent (Invitrogen, CA, USA) and subsequently subjected to RT-PCR following the protocols of RTMasterMix (MCE, NJ, USA). Utilizing the SYBR Green RT-PCR Master Mix from MCE in NJ, USA, mRNA quantification was conducted on the Bio-Rad CFX ConnectTM Real-Time System. The relative expressions of NRG4, CDKN1A, FGF18, PIK3R3, and PDGFRB were measured using GAPDH as the internal reference gene.

[14] = design: method as in PMID 16622124; conditions: chronic oral administration, 800 mg/kg, cited from earlier work

With FC(F)c1nc2ccccc2n1-c1nc(N2CCOCC2)nc(N2CCOCC2)n1 [ZSTK474] the IC50 (WT-CLS1 cells [1]) was 2510 nM, the IC50 (WiT49 cells [2]) was 2000 nM and the “cell growth (proliferation curve)” value (WiT49 and WT-CLS1 cells [3]) was “dose-dependent suppression of cell growth”. For the same compound, the ALT ([4]; 25 mg/kg daily) was 69.7(44.7–96.9), the AST ([4]; 25 mg/kg daily) was 117.5 (95.8–153.7) and the BUN ([4]; 25 mg/kg daily) was 8.3(5.6–10.6). For the same compound, the CK ([4]; 25 mg/kg daily) was 1084.2 (1029.0–1145.0), the CRE ([4]; 25 mg/kg daily) was 13.0(11.0–15.0) and the ALT ([4]; 50 mg/kg daily) was 62.6(48.1–88.2). The AST ([4]; 50 mg/kg daily) was 126.1 (99.4–174.1), the BUN ([4]; 50 mg/kg daily) was 7.7(5.1–10.8) and the CK ([4]; 50 mg/kg daily) was 1009.5 (793.0–1141.0). For the same compound, the CRE ([4]; 50 mg/kg daily) was 12.7(11.0–14.0), the ALT ([4]; 100 mg/kg daily) was 60.6(50.4–76.5) and the AST ([4]; 100 mg/kg daily) was 130.4 (97.7–173.1). For the same compound, the BUN ([4]; 100 mg/kg daily) was 7.3(5.1–10.1), the CK ([4]; 100 mg/kg daily) was 952.5 (637.0–1135.0) and the CRE ([4]; 100 mg/kg daily) was 12.5(10.0–15.0). The “hematological indices and organ pathology examination vs control” value ([4]; 25, 50, 100 mg/kg daily) was “no notable variances”, the “post-administration body weight changes vs PBS control” value ([4]; 25, 50, 100 mg/kg daily) was “no significant differences” and the “levels of PCNA, MMP2, MMP9 and VEGF in tumor tissues (immunofluorescence)” value ([5]; 25, 50 and 100 mg/kg) was “markedly reduced”. For the same compound, the “subcutaneous tumor volume vs control” value ([5]; day 5, high-dose treatment group) was “initial reductions in tumor volume”, the “subcutaneous tumor volume vs control” value ([5]; day 11, treatment group) was “notable reduction in tumor volumes” and the “cell migration (scratch assay)” value (WiT49 and WT-CLS1 cells [6]) was “reduced migration rates”. The “invasion capacity (Transwell)” value (WiT49 and WT-CLS1 cells [7]) was “decrease in invasion capacity”, the “rise in apoptotic cells compared to the controls” value (WT-CLS1 cells [8]) was “below 10%” and the “rise in apoptotic cells compared to the controls” value (WiT49 cells [9]) was 20%. For the same compound, the “apoptosis-induced DNA damage (TUNEL)” value (WiT49 and WT-CLS1 cells [10]) was “late apoptotic DNA damage response”, the “percentage of cells in the G0/G1 phase” value (WiT49 and WT-CLS1 cells [11]) was “significant rise in the percentage of cells in the G0/G1 phase” and the “expression levels of PCNA, MMP2, MMP9 and VEGF (Western blot)” value (WiT49 and WT-CLS1 cells [12]; WT cells) was “lowered expression levels”. For the same compound, the “p-PI3K/PI3K and p-Akt/Akt (Western blot)” value (WiT49 and WT-CLS1 cells [12]; WT cells) was “reduced levels”, the “P21 expression (Western blot)” value (WiT49 and WT-CLS1 cells [12]; WiT49 and WT-CLS1) was “elevation in P21 expression” and the “cyclin D and CDK4 levels (Western blot)” value (WiT49 and WT-CLS1 cells [12]; WiT49 and WT-CLS1) was “reduction in cyclin D and CDK4 levels”. For the same compound, the “PIK3R3 RNA level (RT-PCR)” value (WT-CLS1 cells [13]) was “most pronounced downregulation”, the weight loss ([14]; by day 28) was 14% and the dermal toxicity ([14]; more than 28 days) was “did not result in any dermal toxicity”. For the same compound, the “toxic damage to vital organs” value ([14]; more than 28 days) was “no evidence of toxic damage to vital organs”.
